“And” between values parts separate entries of the source, which are not always exact repeats. Equal values may be shown once. Inconclusive results and toxic doses are left out.
Test system: BDF1 mice, P388 leukemia ip, median survival T/C
Assay: NCI In Vivo Anticancer Drug Screen. Data for tumor model P388 Leukemia (intraperitoneal) in B6D2F1 (BDF1) mice
Conditions: endpoint: median survival time, higher = longer survival
Outline: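 In tumour-bearing mice, survival after compound treatment is set against the vehicle group and given as a quotient.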

[1] = dose: 100.0 mg/kg/injection, schedule: Q01DX009 (ip), vehicle: Klucel (hydroxypropylcellulose) (HPC)
[2] = dose: 200.0 mg/kg/injection, schedule: Q01DX009 (ip), vehicle: Klucel (hydroxypropylcellulose) (HPC)
[3] = dose: 400.0 mg/kg/injection, schedule: Q01DX009 (ip), vehicle: Klucel (hydroxypropylcellulose) (HPC)
[4] = dose: 25.0 mg/kg/injection, schedule: Q01DX009 (ip), vehicle: saline with Tween-80
[5] = dose: 50.0 mg/kg/injection, schedule: Q04DX003 (ip), vehicle: saline with Tween-80
[6] = dose: 100.0 mg/kg/injection, schedule: Q01DX009 (ip), vehicle: saline with Tween-80
[7] = dose: 200.0 mg/kg/injection, schedule: Q01DX009 (ip), vehicle: saline with Tween-80
[8] = dose: 400.0 mg/kg/injection, schedule: Q01DX009 (ip), vehicle: saline with Tween-80
[9] = dose: 50.0 mg/kg/injection, schedule: Q01DX009 (ip), vehicle: saline with Tween-80
[10] = dose: 100.0 mg/kg/injection, schedule: Q04DX003 (ip), vehicle: saline with Tween-80
[11] = dose: 200.0 mg/kg/injection, schedule: Q04DX003 (ip), vehicle: saline with Tween-80
[12] = dose: 400.0 mg/kg/injection, schedule: Q04DX003 (ip), vehicle: saline with Tween-80

SMILES: Cc1ccc(C)c(NC(=O)c2ccc(Cl)cc2)c1
- T/C (dose: 100.0 mg/kg/injection, schedule: Q01DX001 (ip), vehicle: saline with Tween-80): 104 % of control
- T/C (dose: 200.0 mg/kg/injection, schedule: Q01DX001 (ip), vehicle: saline with Tween-80): 104 % of control
- T/C (dose: 400.0 mg/kg/injection, schedule: Q01DX001 (ip), vehicle: saline with Tween-80): 100 % of control

SMILES: Cc1c(O)c([N+](=O)[O-])cc2c1OCOC2
- T/C [1]: 95 % of control
- T/C [2]: 104 % of control
- T/C [3]: 95 % of control

SMILES: CC1=CC2OC34COC3CC(OC(=O)C(F)(F)F)C4(C)C2(C)CC1 (centres undefined)
- T/C (dose: 75.0 mg/kg/injection, schedule: Q04DX003 (ip), vehicle: saline with Tween-80): 110 % of control
- T/C (dose: 300.0 mg/kg/injection, schedule: Q04DX003 (ip), vehicle: saline with Tween-80): 117 % of control

SMILES: CCOC(=O)CN1C=C(C(=O)c2cc3ccccc3n2S(=O)(=O)c2ccccc2)CCC1
- T/C (dose: 0.05 mg/kg/injection, schedule: Q01DX009 (ip), vehicle: saline): 104 % of control
- T/C (dose: 0.06 mg/kg/injection, schedule: Q01DX009 (ip), vehicle: saline): 105 % of control and 115 % of control
- T/C (dose: 0.1 mg/kg/injection, schedule: Q01DX009 (ip), vehicle: saline): 106 % of control
- T/C (dose: 0.12 mg/kg/injection, schedule: Q01DX009 (ip), vehicle: saline): 150 % of control
- T/C (dose: 0.13 mg/kg/injection, schedule: Q01DX009 (ip), vehicle: saline): 88 % of control
- T/C (dose: 0.2 mg/kg/injection, schedule: Q01DX009 (ip), vehicle: saline): 114 % of control
- T/C (dose: 0.25 mg/kg/injection, schedule: Q01DX009 (ip), vehicle: saline): 105 % of control and 110 % of control
- T/C (dose: 0.5 mg/kg/injection, schedule: Q01DX009 (ip), vehicle: saline): 115 % of control
- T/C (dose: 1.0 mg/kg/injection, schedule: Q01DX009 (ip), vehicle: saline): 100 % of control
- T/C (dose: 2.0 mg/kg/injection, schedule: Q01DX009 (ip), vehicle: saline): 99 % of control and 105 % of control
- T/C (dose: 4.0 mg/kg/injection, schedule: Q01DX009 (ip), vehicle: saline): 121 % of control
- T/C (dose: 8.0 mg/kg/injection, schedule: Q01DX009 (ip), vehicle: saline): 104 % of control
- T/C (dose: 16.0 mg/kg/injection, schedule: Q01DX009 (ip), vehicle: saline): 109 % of control
- T/C (dose: 32.0 mg/kg/injection, schedule: Q01DX009 (ip), vehicle: saline): 106 % of control

SMILES: C/C=C/c1ccc2ccc[n+](C)c2c1O
- T/C (dose: 22.0 mg/kg/injection, schedule: Q04DX003 (ip), vehicle: saline sonified): 100 % of control
- T/C (dose: 25.0 mg/kg/injection, schedule: Q04DX003 (ip), vehicle: saline sonified): 110 % of control
- T/C (dose: 33.0 mg/kg/injection, schedule: Q04DX003 (ip), vehicle: saline sonified): 113 % of control
- T/C (dose: 75.0 mg/kg/injection, schedule: Q04DX003 (ip), vehicle: saline sonified): 118 % of control

SMILES: C[N+](C)(Cc1ccccc1)CC(O)COc1ccccc1 (centres undefined)
- T/C (dose: 12.5 mg/kg/injection, schedule: Q01DX009 (ip), vehicle: saline with Tween-80): 96 % of control
- T/C (dose: 12.5 mg/kg/injection, schedule: Q04DX003 (ip), vehicle: saline with Tween-80): 118 % of control
- T/C [4]: 103 % of control
- T/C (dose: 25.0 mg/kg/injection, schedule: Q04DX003 (ip), vehicle: saline with Tween-80): 113 % of control
- T/C [5]: 104 % of control

SMILES: CSc1ncc(Br)c(C(=O)O)n1
- T/C [6]: 95 % of control
- T/C [7]: 100 % of control
- T/C [8]: 104 % of control

SMILES: C=C(C)C(=O)NCCC(=O)Oc1ccc([N+](=O)[O-])cc1
- T/C [9]: 95 % of control
- T/C [6]: 87 % of control
- T/C [7]: 86 % of control

SMILES: CC(C#N)N(C)C (centres undefined)
- T/C (dose: 10.0 mg/kg/injection, schedule: Q01DX009 (ip), vehicle: saline): 110 % of control
- T/C (dose: 10.0 mg/kg/injection, schedule: Q04DX003 (ip), vehicle: saline): 95 % of control
- T/C (dose: 20.0 mg/kg/injection, schedule: Q04DX003 (ip), vehicle: saline): 91 % of control
- T/C (dose: 40.0 mg/kg/injection, schedule: Q04DX003 (ip), vehicle: saline): 95 % of control

SMILES: Cc1cccc(N)n1 (tested in a mixture with another compound)
- T/C (dose: 12.5 mg/kg/injection, schedule: Q01DX009 (ip), vehicle: saline): 105 % of control
- T/C (dose: 25.0 mg/kg/injection, schedule: Q01DX009 (ip), vehicle: saline): 94 % of control
- T/C (dose: 50.0 mg/kg/injection, schedule: Q01DX009 (ip), vehicle: saline): 89 % of control

SMILES: CCOC(=S)SCC(=O)Nc1ccccc1
- T/C [4]: 93 % of control
- T/C [9]: 90 % of control
- T/C [6]: 103 % of control

SMILES: CCN(O)C(N)=O
- T/C [6]: 108 % of control
- T/C [10]: 96 % of control and 104 % of control
- T/C [7]: 100 % of control
- T/C [11]: 88 % of control and 91 % of control
- T/C [8]: 100 % of control
- T/C [12]: 96 % of control and 100 % of control

SMILES: CCC(c1ccc(OC(=O)Cc2ccc(N(CCCl)CCCl)cc2)cc1)C(CC)c1ccc(OC(=O)Cc2ccc(N(CCCl)CCCl)cc2)cc1 (centres undefined)
- T/C [4]: 96 % of control
- T/C [9]: 104 % of control
- T/C (dose: 64.0 mg/kg/injection, schedule: Q01DX009 (ip), vehicle: saline with Tween-80): 92 % of control and 100 % of control
- T/C [6]: 104 % of control
- T/C (dose: 128.0 mg/kg/injection, schedule: Q01DX009 (ip), vehicle: saline with Tween-80): 92 % of control and 98 % of control
- T/C [7]: 98 % of control
- T/C (dose: 256.0 mg/kg/injection, schedule: Q01DX009 (ip), vehicle: saline with Tween-80): 93 % of control and 99 % of control
- T/C [8]: 107 % of control
- T/C (dose: 512.0 mg/kg/injection, schedule: Q01DX009 (ip), vehicle: saline with Tween-80): 98 % of control and 104 % of control

SMILES: C=CC(N)C(=O)O (centres undefined)
- T/C (dose: 100.0 mg/kg/injection, schedule: Q04DX002 (ip), vehicle: saline with Tween-80): 117 % of control
- T/C (dose: 200.0 mg/kg/injection, schedule: Q04DX002 (ip), vehicle: saline with Tween-80): 108 % of control
- T/C (dose: 400.0 mg/kg/injection, schedule: Q04DX002 (ip), vehicle: saline with Tween-80): 100 % of control

SMILES: O=c1oc2ccccc2c2c1C(c1ccccc1)C=C(c1ccccc1)O2 (centres undefined)
- T/C [5]: 96 % of control
- T/C [10]: 91 % of control
- T/C [11]: 91 % of control
- T/C [12]: 95 % of control

SMILES: Nc1ccc(CCc2ccc(N)cc2[N+](=O)[O-])c([N+](=O)[O-])c1
- T/C [1]: 100 % of control
- T/C [2]: 100 % of control
- T/C [3]: 100 % of control

SMILES: CC(C)CCCC(C)C1CCC2C3CC=C4CC([Se][As](C)C)CCC4(C)C3CCC12C (centres undefined)
- T/C [9]: 118 % of control
- T/C [6]: 111 % of control

SMILES: COc1cccc2c1C(=O)c1c(O)c3c(c(O)c1C2=O)C[C@@](O)(/C(C)=N/NC(=O)c1ccc(-c2ccccc2)cc1)C[C@@H]3OC1CC(N)C(O)C(C)O1 (some centres undefined)
- T/C (dose: 0.78 mg/kg/injection, schedule: Q01DX009 (ip), vehicle: water): 107 % of control
- T/C (dose: 1.56 mg/kg/injection, schedule: Q01DX009 (ip), vehicle: water): 122 % of control
- T/C (dose: 3.12 mg/kg/injection, schedule: Q01DX009 (ip), vehicle: water): 224 % of control
- T/C (dose: 6.25 mg/kg/injection, schedule: Q01DX009 (ip), vehicle: water): 157 % of control
- T/C (dose: 12.5 mg/kg/injection, schedule: Q01DX009 (ip), vehicle: water): 169 % of control

SMILES: CCCCCCCCCCCCCCCC(=O)N1CCC(N2CCCCC2)CC1
- T/C (dose: 200.0 mg/kg/injection, schedule: Q01DX001 (ip), vehicle: Klucel (hydroxypropylcellulose) (HPC)): 109 % of control
- T/C (dose: 400.0 mg/kg/injection, schedule: Q01DX001 (ip), vehicle: Klucel (hydroxypropylcellulose) (HPC)): 90 % of control

SMILES: C/C=C1/CN(C)C2Cc3c([nH]c4ccccc34)C(c3cc4c5c([nH]c4cc3OC)C3(C(=O)OC)CC4CC(CC)C3N(CC5)C4)CC1C2C(=O)OC (centres undefined)
- T/C (dose: 1.3 mg/kg/injection, schedule: Q01DX009 (ip), vehicle: alcohol): 88 % of control
- T/C (dose: 4.0 mg/kg/injection, schedule: Q01DX009 (ip), vehicle: alcohol): 87 % of control
- T/C (dose: 12.0 mg/kg/injection, schedule: Q01DX009 (ip), vehicle: alcohol): 88 % of control

SMILES: c1cc[c]([Sb]([c]2ccccc2)[c]2ccccc2)cc1
- T/C (dose: 20.0 mg/kg/injection, schedule: Q04DX003 (ip), vehicle: saline with Tween-80): 120 % of control

SMILES: CC(C)NCC(=O)c1ccc(O)c(O)c1
- T/C [6]: 109 % of control
- T/C [10]: 100 % of control
- T/C [11]: 100 % of control
- T/C [12]: 100 % of control
